Experimental findings from US3939144A, “Manufacture of N-(benzenesulfonyl)-5-O-desosaminyl-erythromycilamine derivatives” (Pliva, Pharmaceutical and Chemical Works, priority 1974, dated 1976) are described below.

As usually defined, the MIC is the lowest concentration that inhibits growth of the organism. A low value points to inhibition by little substance.

Assay type in all cases: cell-based
What all share (conditions): compound alone

Assay [1] relates to E.coli 7920. The assay is described as follows: Preliminary bacteriological tests, MIC, E.coli 7920.
Assay [2] relates to E.coli 8141. The assay is described as follows: Preliminary bacteriological tests, MIC, E.coli 8141.
In assay [3] the test system is Strept.haem. Briefly: Preliminary bacteriological tests, MIC, Strept.haem.

SMILES strings stand for the structures. Values after ≈ are worked out from the molar mass of the structure shown.

Consider `CCC1OC(=O)C(C)C(O)C(C)C(OC2OC(C)CC(N(C)C)C2O)C(C)(O)CC(C)C(NS(=O)(=O)c2ccc(Br)cc2)C(C)C(O)C1(C)O` (stereo not drawn) [DEASBr, N-(4-bromo-benzenesulfonyl)-5 -O-desosaminyl-erythromycilamine], for which the MIC in assay [1] amounted to 250 µg/mL (≈ 314 µM); in assay [2], 500 µg/mL (≈ 628 µM); in assay [3], 62.2 µg/mL (≈ 78.2 µM).
For `CCC1OC(=O)C(C)C(O)C(C)C(OC2OC(C)CC(N(C)C)C2O)C(C)(O)CC(C)C(NS(=O)(=O)c2ccc(Cl)cc2)C(C)C(O)C1(C)O` (stereo not drawn) [DEASCl, N-(4-chloro-benzenesulfonyl)-5 -O-desosaminyl-erythromycilamine], in that order: 250 µg/mL (≈ 333 µM), 250 µg/mL (≈ 333 µM) and 125 µg/mL (≈ 166 µM).
The matching figures for `CCC1OC(=O)C(C)C(O)C(C)C(OC2OC(C)CC(N(C)C)C2O)C(C)(O)CC(C)C(NS(=O)(=O)c2ccc(N)cc2)C(C)C(O)C1(C)O` (stereo not drawn) [DEASNH2, N-(4-amino-benzenesulfonyl)-5-0-desosaminyl-erythromycilamine]: 125 µg/mL (≈ 171 µM), 125 µg/mL (≈ 171 µM) and 62.2 µg/mL (≈ 85 µM).
The matching figures for `CCC1OC(=O)C(C)C(O)C(C)C(OC2OC(C)CC(N(C)C)C2O)C(C)(O)CC(C)C(NS(=O)(=O)c2ccc(C)cc2)C(C)C(O)C1(C)O` (stereo not drawn) [DEAST, N-(4-methyl-benzenesulfonyl)-5 -O-desosaminyl-erythromycilamine]: 125 µg/mL (≈ 171 µM), 125 µg/mL (≈ 171 µM) and 62.2 µg/mL (≈ 85.1 µM).
